Legend:
[1] = tested on: propranolol-induced psoriasis-like lesions; assay: Propranolol-induced psoriasis-like lesions on guinea pig ears (PDT, histology); assay type: in vivo
Description: Propranolol is a β-adrenergic receptor blocking agent, and it may be applied to guinea pig skin to block the β-adrenergic receptor in keratinocytes and thereby reducing the intracellular cAMP level, leading to histopathological changes similar to psoriasis such as hyperkeratosis, parakeratosis and acanthosis of animal epidermis, which are the same as human psoriatic lesions at the molecular level. Application of propranolol to ear skin of guinea pig to replicate a psoriasis-like skin model is often used for observing the therapeutic effect of a drug on psoriasis.
Preparation method for 5% propranolol liniment: dissolving 5 g powder of propranolol API in 50 mL of 50% ethanol, adding 5 g of polyoxyethylene pyrrolidone 30, 2.5 mL of azone, 2.5 mL of propylene glycol, and finally adding 50% ethanol to 100 mL. 5% propranolol was prepared fresh for use. Forty-two guinea pigs were randomly divided into a blank control group and a model-establishing group according to weights, 6 guinea pigs in the blank control group and 36 guinea pigs in the model-establishing group. 5% propranolol was applied uniformly on the back of both ears of guinea pigs in the model-establishing group at a dose of 0.1 mL/ear, once in the morning and once in the afternoon, and the administration lasted for continuous 4 weeks. After the model was established, the guinea pigs in the model-establishing group were randomly divided into 6 groups according to weights again, 6 guinea pigs in each group. The 6 groups were model control group, irradiation without administration group, administration without irradiation group, injection administration group and topical administration groups 1 and 2, respectively. The administration without irradiation group and the injection administration group were intravenously injected with α-(8-quinolinyloxy) mono-substituted phthalocyanine zinc solution at a dose of 0.45 mg/kg and the topical administration groups 1 and 2 were respectively applied with 5% and 1% α-(8-quinolinyloxy) mono-substituted phthalocyanine zinc liniments at a dose of 0.1 mL/ear. […] were not administrated. After protection from light for 24 hours, the irradiation without administration group, the injection administration group and the topical administration groups 1 and 2 were subjected to laser irradiation by using a semiconductor photodynamic therapeutic instrument with the following irradiation conditions: output power, 1,000 mW; spot diameter, 6 cm; irradiation time, 399 s; irradiation dose, 14 J/cm^2. After irradiation, animals were protected from light for 48 hours, and then recovered for 3 days. A photodynamic therapy (administration, irradiation, protection from light and recovery) was repeated once according to the abovementioned steps. […]

HaCaT cells = assay: Proliferation inhibition of HaCaT cells after 670 nm irradiation (MTT); assay type: cell-based, human
Description: HaCaT cell line, a cell line of normally mutated and immortalized human keratinocyte, is one of the most wildly used cell models for the currently study of psoriasis. As compared with primary cultured keratinocytes, HaCaT cells have similar biological properties, but its operation is simpler.
HaCaT cells were routinely cultured in RPMI-1640 medium containing 10% fetal bovine serum at 37° C. in a 5% CO2 incubator. The cells were harvested in logarithmic growth phase, digested with 0.25% trypsin (containing EDTA), adjusted to a cell density of 2×10^5 cells/mL and seeded in a 96-well plate, 100 μL per each well; after incubation for 24 hours, α-(8-quinolinyloxy) mono-substituted phthalocyanine zinc was added at concentrations of 0.001 μg/mL, 0.01 μg/mL, 0.1 μg/mL, 1 μg/mL and 10 μg/mL respectively and three complex wells were set for each concentration. […] The culture medium was discarded; 200 μL of MTT solution (0.5 mg/mL) was added to each well; the cells were incubated for additional 4 hours; then, 200 μL of dimethyl sulfoxide was added to each well and the absorbance value of each well was measured by a microplate reader at 545 nm (reference wavelength: 450 nm). 3 times of parallel measurements were conducted and the mean value was calculated. The inhibition rate of proliferation was calculated and IC50 was calculated by Bliss method.

[2] = tested on: mouse vaginal epithelial cells; assay: Diethylstilbestrol-induced excessive proliferation of mouse vaginal epithelial cells (PDT, mitotic index); assay type: in vivo, ICR mice; conditions: for Mitotic Index: x ± s, n = 10
Description: Estrogen (for example diethylstilbestrol) may induce the active proliferation of mouse vaginal epithelial cells, thereby accelerating the turnover of epithelial cells; and colchicine may make the cell cycle stagnated in the mitotic metaphase and then the inhibition effects of a test substance on mitosis and excessive cell proliferation may be observed. This model may simulate the characteristic of overly rapid proliferation of epithelial cells in psoriasis patients, is simple and easy to obtain, and is one of the most common animal models in the assessment of drug efficacy for psoriasis.
Sixty ICR mice were taken and randomly divided into 6 groups according to weights: blank control group, model control group, irradiation without administration group and PDT groups 1, 2 and 3. Except for the blank control group, all of other groups were intraperitoneally injected with diethylstilbestrol (0.2 mg/mouse), once-daily for 3 days. […] After protection from light for 6 hours, the PDT groups 1, 2 and 3 and the irradiation without administration group were subjected to laser irradiation by using a semiconductor photodynamic therapeutic instrument; the irradiation conditions were 100 mW×540 s, 300 mW×60 s, 100 mW×60 s and 300 mW×540 s, respectively; the spot diameter was 3 cm; and the abdomen of mice was irradiated. The blank control group and the model control group were not subjected to irradiation. After one week post-irradiation, mice of each group were intraperitoneally injected with colchicine at a dose of 2 mg/kg, making the cell mitosis stagnated in the mitotic metaphase. After 4 hours post-injection of colchicine, animals were sacrificed by anesthesia. Mouse vagina was taken, fixed in 10% formaldehyde solution, conventionally dehydrated, embedded in paraffin, sliced and stained with HE; 300 basal cells were counted under a microscope and the number of mitotic cells was calculated and the mitotic index was calculated (number of mitotic cells per 100 basal cells).

Substance: α-(8-quinolinyloxy) mono-substituted phthalocyanine zinc
- Psoriasis-like lesions of the guinea pig ear (result in words) ([1]; administration without irradiation group: 0.45 mg/kg i.v., no laser): improved to some extent but not obviously
- Psoriasis-like lesions of the guinea pig ear (result in words) ([1]; injection administration group: 0.45 mg/kg i.v., laser 1,000 mW, 399 s, 14 J/cm^2, two photodynamic therapies): improved significantly
- Psoriasis-like lesions of the guinea pig ear (result in words) ([1]; topical administration group 1: 5% liniment 0.1 mL/ear, laser 1,000 mW, 399 s, 14 J/cm^2, two photodynamic therapies): improved significantly
- Psoriasis-like lesions of the guinea pig ear (result in words) ([1]; topical administration group 2: 1% liniment 0.1 mL/ear, laser 1,000 mW, 399 s, 14 J/cm^2, two photodynamic therapies): improved significantly
- Proliferation of HaCaT cells (result in words) (HaCaT cells; 0.001-10 μg/mL, 670 nm irradiation): inhibit the proliferation of HaCaT cells in a concentration-dependent manner
- IC50, inhibition of proliferation of HaCaT cells (HaCaT cells; 4 h incubation, 670 nm irradiation 1500 mW, spot 8 cm, 180 s, MTT 48 h after irradiation, Bliss method): 0.197 ± 0.022 µg/mL
- Mitotic Index ([2]; PDT group 1: dose 2 mg/kg i.p., irradiation 540 s, 100 mW): 6.4 ± 2.2^##^ %
- Mitotic Index ([2]; PDT group 2: dose 1 mg/kg i.p., irradiation 60 s, 300 mW): 7.2 ± 2.6 %
- Mitotic Index ([2]; PDT group 3: dose 0.5 mg/kg i.p., irradiation 60 s, 100 mW): 10.3 ± 4.3 %
- Mitotic index compared with the model control group (result in words) ([2]; PDT groups 1, 2 and 3): significantly reduced

Source: patent publication US10058611B2, “Use of α-(8-quinolinyloxy) mono-substituted phthalocyanine zinc for treatment of psoriasis” (BEIJING GUIQIANJIN MEDICAL SCIENCE AND TECHNOLOGY CO., LTD., priority 2014, dated 2018)
